Source: patent US10898481B2 (priority 2018, dated 2021)
Like-named read-outs stand apart in the source and are kept apart here.

Tests used:
[1] = target: hA2b/CHO (Homo sapiens (Human), UniProt P29275); assay: cAMP inhibition assay in hA2b/CHO cells, 10 μM adenosine; assay type: cell-based;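 note: cells exposed to compound 30 min at 37 °C, then stimulated with adenosine a further 30 min, cAMP read after 60 min at room temperature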
Protocol: (§1) hA2a/CHO, hA2b/CHO, hA3/CHO and mA2a/CHO (Genscript) were plated at 5×10^3 cells/well into 384-well polystyrene plates at the day of experiment. Compounds were pre-incubated with cells for 30 min at 37° C., 5% CO2. Then 10 μM adenosine was added to the cells and incubated for 30 min at 37° C., 5% CO2. Detection reagent (CISBIO) was added and the plates were incubated for 60 min at room temperature. The signal was captured by Envision.

[2] = target: hADORA1/CHO (hA1 expressing) cells (Homo sapiens (Human), UniProt P30542); assay: cell-based; conditions: 10 μM adenosine
[3] = target: hA2a/CHO (Homo sapiens (Human), UniProt P29274); assay: cAMP inhibition assay in hA2a/CHO cells, 10 μM adenosine; assay type: cell-based;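 note: compounds added to cells 30 min ahead of adenosine, then a further 30 min at 37 °C with adenosine before cAMP detection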
Protocol: as §1

[4] = target: mA2a/CHO (Mus musculus (Mouse), UniProt Q60613); assay: cAMP inhibition assay in mA2a/CHO cells, 10 μM adenosine; assay type: cell-based;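 note: compounds preincubated 30 min at 37 °C before the adenosine challenge, then 30 min further stimulation, readout after 60 min detection reagent incubation at room temperature in 384-well plates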
Protocol: as §1

[5] = read-out: cAMP & FLIPR IC50 (nM) hA2b
[6] = FLIPR inhibition, read-out: cAMP & FLIPR IC50 (nM) hA1
[7] = read-out: cAMP & FLIPR IC50 (nM) hA2a
[8] = read-out: cAMP & FLIPR IC50 (nM) mA2a

Sequence of hA2a/CHO (P29274 whole entry): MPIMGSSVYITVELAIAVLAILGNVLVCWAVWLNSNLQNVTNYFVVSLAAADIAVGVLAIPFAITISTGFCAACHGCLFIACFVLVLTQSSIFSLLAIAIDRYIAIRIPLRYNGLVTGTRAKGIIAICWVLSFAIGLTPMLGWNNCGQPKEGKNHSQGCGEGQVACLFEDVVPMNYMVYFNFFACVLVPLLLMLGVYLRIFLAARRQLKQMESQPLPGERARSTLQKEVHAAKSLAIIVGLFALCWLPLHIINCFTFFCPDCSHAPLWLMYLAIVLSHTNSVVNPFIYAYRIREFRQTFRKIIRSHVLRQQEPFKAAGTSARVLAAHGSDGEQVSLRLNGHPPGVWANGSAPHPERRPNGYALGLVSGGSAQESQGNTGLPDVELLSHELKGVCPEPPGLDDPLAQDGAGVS
Sequence of mA2a/CHO (Q60613 whole entry): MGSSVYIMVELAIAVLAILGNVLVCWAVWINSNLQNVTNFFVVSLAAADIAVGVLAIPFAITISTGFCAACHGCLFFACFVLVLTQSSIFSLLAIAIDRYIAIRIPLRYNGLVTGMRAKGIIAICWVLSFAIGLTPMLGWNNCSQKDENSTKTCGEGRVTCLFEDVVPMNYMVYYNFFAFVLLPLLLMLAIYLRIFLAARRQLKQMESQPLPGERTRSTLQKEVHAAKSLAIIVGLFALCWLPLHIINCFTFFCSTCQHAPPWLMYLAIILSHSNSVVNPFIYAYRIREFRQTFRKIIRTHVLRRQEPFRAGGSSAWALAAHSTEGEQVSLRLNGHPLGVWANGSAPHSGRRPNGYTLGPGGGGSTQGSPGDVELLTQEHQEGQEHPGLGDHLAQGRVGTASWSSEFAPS
Sequence of hADORA1/CHO (hA1 expressing) cells (P30542 whole entry): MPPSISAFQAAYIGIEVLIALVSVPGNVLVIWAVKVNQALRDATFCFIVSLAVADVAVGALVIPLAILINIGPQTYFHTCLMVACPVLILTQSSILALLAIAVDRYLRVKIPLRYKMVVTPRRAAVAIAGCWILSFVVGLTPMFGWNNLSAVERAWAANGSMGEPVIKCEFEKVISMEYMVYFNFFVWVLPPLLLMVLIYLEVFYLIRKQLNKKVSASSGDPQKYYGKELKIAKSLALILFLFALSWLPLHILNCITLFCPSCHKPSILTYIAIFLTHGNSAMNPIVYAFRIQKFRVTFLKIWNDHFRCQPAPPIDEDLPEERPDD
Sequence of hA2b/CHO (P29275 whole entry): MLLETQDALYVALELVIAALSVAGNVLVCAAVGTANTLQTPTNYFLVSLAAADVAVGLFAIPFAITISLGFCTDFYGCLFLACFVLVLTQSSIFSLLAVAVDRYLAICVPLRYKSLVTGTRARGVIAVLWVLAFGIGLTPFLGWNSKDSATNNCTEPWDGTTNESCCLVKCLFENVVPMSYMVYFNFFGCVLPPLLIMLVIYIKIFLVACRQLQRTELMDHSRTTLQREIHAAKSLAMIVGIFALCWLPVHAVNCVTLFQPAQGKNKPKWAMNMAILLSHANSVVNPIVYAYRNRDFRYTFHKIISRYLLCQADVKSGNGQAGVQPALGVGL

| SMILES | IC50 [1, 5] [nM] | IC50 [2, 6] [nM] | IC50 [3, 7] [nM] | IC50 [4, 8] [nM] | IC50 ([1]; cAMP & FLIPR IC50 (nM) hA2b) [nM] | IC50 ([2]; cAMP & FLIPR IC50 (nM) hA1, FLIPR inhibition) [nM] | IC50 ([3]; cAMP & FLIPR IC50 (nM) hA2a) [nM] | IC50 ([4]; cAMP & FLIPR IC50 (nM) mA2a) [nM] |
| --- | --- | --- | --- | --- | --- | --- | --- | --- |
| Cn1cc(-c2nc(C(=O)NCc3c(F)cccc3P(C)(C)=O)c(N)nc2-c2ncco2)ccc1=O [Example 97, 3-amino-N-(2-(dimethylphosphoryl)-6-fluorobenzyl)-6-(1-methyl-6-oxo-1,6-dihydropyridin-3-yl)-5-(oxazol-2-yl) pyrazine-2-carboxamide] | 4880 | 482 | 50 | 40 | – | – | – | – |
| CNc1cccc(CNC(=O)c2nc(-c3ccc4nccn4c3)c(-c3ncco3)nc2N)n1 [Example 99, 3-amino-6-(imidazo[1,2-a]pyridin-6-yl)-N-((6-(methylamino)pyridin-2-yl)methyl)-5-(oxazol-2-yl)pyrazine-2-carboxamide] | 200 | 171 | 5.1 | 35 | – | – | – | – |
| Nc1nc(-c2ncco2)c(-c2ccc(=O)n(CCCO)c2)nc1C(=O)NCc1c(F)cccc1F [Example 102, 3-amino-N-[(2,6-difluorophenyl)methyl]-6-[1-(3-hydroxypropyl)-6-oxo-1,6-dihydropyridin-3-yl]-5-(1,3-oxazol-2-yl)pyrazine-2-carboxamide] | 120 | 78 | 9.9 | 48 | – | – | – | – |
| COCCn1cc(-c2nc(C(=O)NCc3c(F)cccc3F)c(N)nc2-c2ncco2)ccc1=O [Example 103, 3-amino-N-[(2,6-difluorophenyl)methyl]-6-[1-(2-methoxyethyl)-6-oxo-1,6-dihydropyridin-3-yl]-5-(1,3-oxazol-2-yl)pyrazine-2-carboxamide] | 2130 | 272 | 38 | 16 | – | – | – | – |
| Nc1nc(-c2ncco2)c(-c2ccc(=O)[nH]c2)nc1C(=O)NCc1c(F)cccc1F [Example 105, 3-amino-N-(2,6-difluorobenzyl)-5-(oxazol-2-yl)-6-(6-oxo-1,6-dihydropyridin-3-yl)pyrazine-2-carboxamide] | 1.8 | 3.5 | 0.1 | 0.8 | – | – | – | – |
| Cn1cc(-c2nc(C(=O)NCc3ccccc3F)c(N)nc2-c2ncco2)ccc1=O [Example 109, 3-amino-N-(2-fluorobenzyl)-6-(1-methyl-6-oxo-1,6-dihydropyridin-3-yl)-5-(oxazol-2-yl)pyrazine-2-carboxamide] | 240 | 486 | 13 | 20 | – | – | – | – |
| Cn1cc(-c2nc(C(=O)NCc3c(F)cccc3Cl)c(N)nc2-c2ncco2)ccc1=O [Example 110, 3-amino-N-(2-chloro-6-fluorobenzyl)-6-(1-methyl-6-oxo-1,6-dihydropyridin-3-yl)-5-(oxazol-2-yl)pyrazine-2-carboxamide] | 11 | 31 | 0.7 | 1 | – | – | – | – |
| Cc1cnc2ccc(-c3nc(C(=O)NCc4cccc(N5CC(N(C)C)C5)n4)c(N)nc3-c3ncco3)cn12 [Example 111, 3-amino-N-((6-(3-(dimethylamino)azetidin-1-yl)pyridin-2-yl)methyl)-6-(3-methylimidazo[1,2-a]pyridin-6-yl)-5-(oxazol-2-yl)pyrazine-2-carboxamide] | 81 | 2810 | 0.5 | 6.5 | – | – | – | – |
| Cc1cnc2ccc(-c3nc(C(=O)NCc4cccc(N5CCN(C)CC5)n4)c(N)nc3-c3ncco3)cn12 [Example 112, 3-amino-6-(3-methylimidazo[1,2-a]pyridin-6-yl)-N-((6-(4-methylpiperazin-1-yl)pyridin-2-yl)methyl)-5-(oxazol-2-yl)pyrazine-2-carboxamide] | 502 | 10000 | 1.3 | 18 | – | – | – | – |
| Cn1cnc2ccc(-c3nc(C(=O)NCc4ncccc4OCCO)c(N)nc3-c3ccc(F)cc3)cc21 [Example 113, 3-amino-5-(4-fluorophenyl)-N-[[3-(2-hydroxyethoxy)pyridin-2-yl]methyl]-6-(1-methyl-1H-1,3-benzodiazol-6-yl)pyrazine-2-carboxamide] | 68 | 70 | 0.4 | 1 | – | – | – | – |
| COCCOc1cccnc1CNC(=O)c1nc(-c2ccc3ncn(C)c3c2)c(-c2ccc(F)cc2)nc1N [Example 114, 3-amino-5-(4-fluorophenyl)-N-[[3-(2-methoxyethoxy)pyridin-2-yl]methyl]-6-(1-methyl-1H-1,3-benzodiazol-6-yl)pyrazine-2-carboxamide] | 170 | 83 | 0.7 | 1.5 | – | – | – | – |
| CN(C)CCOc1cccnc1CNC(=O)c1nc(-c2ccc3ncn(C)c3c2)c(-c2ccc(F)cc2)nc1N [Example 116, 3-amino-N-([3-[2-(dimethylamino)ethoxy]pyridin-2-yl]methyl)-5-(4-fluorophenyl)-6-(1-methyl-1H-1,3-benzodiazol-6-yl)pyrazine-2-carboxamide] | – | – | – | – | 6020 | 61 | 9.6 | 17 |
| Cn1cnc2ccc(-c3nc(C(=O)NCc4ncccc4NCCO)c(N)nc3-c3ccc(F)cc3)cc21 [Example 117, 3-amino-5-(4-fluorophenyl)-N-([3-[(2-hydroxyethyl)amino]pyridin-2-yl]methyl)-6-(1-methyl-1H-1,3-benzodiazol-6-yl)pyrazine-2-carboxamide] | 146 | 64 | 0.7 | 2.6 | – | – | – | – |
| Cc1cnc2ccc(-c3nc(C(=O)NCc4cnccc4N(C)C)c(N)nc3-c3ncco3)cn12 [Example 118, 3-amino-N-((4-(dimethylamino)pyridin-3-yl)methyl)-6-(3-methylimidazo[1,2-a]pyridin-6-yl)-5-(oxazol-2-yl)pyrazine-2-carboxamide] | 6.8 | 35 | 3.1 | 1.7 | – | – | – | – |
| Cn1cnc2ccc(-c3nc(C(=O)NCc4ncccc4OCC(N)=O)c(N)nc3-c3ccc(F)cc3)cc21 [Example 119, 3-amino-N-[[3-(carbamoylmethoxy)pyridin-2-yl]methyl]-5-(4-fluorophenyl)-6-(1-methyl-1H-1,3-benzodiazol-6-yl)pyrazine-2-carboxamide] | 31 | 41 | 1.1 | 4.7 | – | – | – | – |
| Cc1cnc2ccc(-c3nc(C(=O)NC[C@H]4CCCN4)c(N)nc3-c3ncco3)cn12 [Example 122, (R)-3-amino-6-(3-methylimidazo[1,2-a]pyridin-6-yl)-5-(oxazol-2-yl)-N-(pyrrolidin-2-ylmethyl)pyrazine-2-carboxamide] | 887 | 10000 | 34 | 126 | – | – | – | – |
| Cc1cnc2ccc(-c3nc(C(=O)NC[C@@H]4CCCN4)c(N)nc3-c3ncco3)cn12 [Example 123, (S)-3-amino-6-(3-methylimidazo[1,2-a]pyridin-6-yl)-5-(oxazol-2-yl)-N-(pyrrolidin-2-ylmethyl)pyrazine-2-carboxamide] | 1310 | 10000 | 56 | 153 | – | – | – | – |
| CCc1cnn2ccc(-c3nc(C(=O)NC[C@H]4CCCN4C)c(N)nc3-c3ncco3)cc12 [Example 128, (R)-3-amino-6-(3-ethylpyrazolo[1,5-a]pyridin-5-yl)-N-((1-methylpyrrolidin-2-yl)methyl)-5-(oxazol-2-yl)pyrazine-2-carboxamide] | ≥ 10000 | 10000 | 63 | 410 | – | – | – | – |
| CCc1cnn2ccc(-c3nc(C(=O)NC[C@@H]4CCCN4C)c(N)nc3-c3ncco3)cc12 [Example 129, (S)-3-amino-6-(3-ethylpyrazolo[1,5-a]pyridin-5-yl)-N-((1-methylpyrrolidin-2-yl)methyl)-5-(oxazol-2-yl)pyrazine-2-carboxamide] | ≥ 10000 | 10000 | 140 | 944 | – | – | – | – |
| CN1CCC[C@H]1CNC(=O)c1nc(-c2ccc3ncn(C)c3c2)c(-n2nccn2)nc1N [Example 130, 3-amino-6-(1-methyl-1H-1,3-benzodiazol-6-yl)-N-[[(2S)-1-methylpyrrolidin-2-yl]methyl]-5-(2H-1,2,3-triazol-2-yl)pyrazine-2-carboxamide] | ≥ 10000 | 10000 | 295 | 2800 | – | – | – | – |
| CN1CCC[C@@H]1CNC(=O)c1nc(-c2ccc3ncn(C)c3c2)c(-n2nccn2)nc1N [Example 131, (R)-3-amino-6-(1-methyl-1H-benzo[d]imidazol-6-yl)-N-((1-methylpyrrolidin-2-yl)methyl)-5-(2H-1,2,3-triazol-2-yl)pyrazine-2-carboxamide] | ≥ 10000 | 10000 | 332 | 2700 | – | – | – | – |
| CCNC(=O)c1nc(-c2ccc3ncc(C)n3c2)c(-c2ncco2)nc1N [Example 132, 3-amino-N-ethyl-6-(3-methylimidazo [1,2-a]pyridin-6-yl)-5-(oxazol-2-yl) pyrazine-2-carboxamide] | 258 | 10000 | 13 | 65 | – | – | – | – |
| Cc1cnc2ccc(-c3nc(C(=O)NCCC#N)c(N)nc3-c3ncco3)cn12 [Example 142, 3-amino-N-(2-cyanoethyl)-6-(3-methyl-imidazo[1,2-a]pyridin-6-yl)-5-(oxazol-2-yl)pyrazine-2-carboxamide] | 319 | 10000 | 10 | 73 | – | – | – | – |
| Cc1cnc2ccc(-c3nc(C(=O)NCCC(=O)N(C)C)c(N)nc3-c3ncco3)cn12 [Example 143, 3-amino-N-(3-(dimethylamino)-3-oxopropyl)-6-(3-methylimidazo[1,2-a]pyridin-6-yl)-5-(oxazol-2-yl)pyrazine-2-carboxamide] | 162 | 180 | 1.7 | 12 | – | – | – | – |
